Data set [1] can be described thus: Free energy of hydration predicted with the QM-parameterized force field model (ARROW FF), classical MD and PIMD simulation in a water box. Particulars: for water Arrow MD Error / water Arrow PIMD8 Error: Table 3; for water Arrow MD Error: absolute error of MD hydration free energy vs experiment; for water Arrow PIMD8 Error: absolute error of PIMD8 hydration free energy vs experiment; for Arrow PIMD8 Error: absolute error vs Exp (hydration). The method, boiled down:
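Solute decoupled from solvent in a 32×32×32 Å3 water box (PME, 9 Å cutoffs), electrostatics, exchange-repulsion and dispersion switched off together over 15 lambda points with soft-coring. Steepest-descent minimization, 50 ps equilibration, 1 ns NPT production at 1 atm; classical and path-integral MD. Free energy from BAR and TI.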

Data set [2] can be described thus: Free energy of hydration by COSMO implicit solvent model (MolPro ver. 2012). The note with it: absolute error vs Exp (hydration). The method, boiled down: (§1)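 Implicit-solvent predictions of hydration free energy. MolPro supplied the COSMO solvation energies across the dataset. Predicted SMD and PCM values were received rather than computed here. Coverage for SMD, PCM and COSMO-RS matches the QM-parameterized force-field subset.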

For data set [3] the following is noted: experimental, cited from earlier work; for water Exp (hydration): Table 3.
A short description of data set [4]: Free energy of hydration predicted by General Amber Force Field (GAFF), from literature. Particulars: Table 5; error of GAFF hydration free energy vs experiment.
The conditions of data set [5]: Table 5; free energy of hydration, GAFF prediction taken from literature; cited from earlier work.
Data set [6] is described as follows: Free energy of hydration predicted by polarizable AMOEBA force field, from literature. Particulars: Table 5; error of AMOEBA hydration free energy vs experiment.
Data set [7] can be described thus: Bulk solvent properties (density, heat of vaporization, self-solvation) predicted with the QM-parameterized force field model (AFF MD / PIMD).
Source text: Particle-Mesh Ewald (PME) algorithm was used to compute the electrostatic interactions. A 32×32×32 grid mesh and 5th power spline interpolation order can be used to compute the inverse PME sum. 9 Å cutoffs were used to compute the direct PME sum as well as the exchange and dispersion interactions. Bulk corrections were applied to account for distance cut-off of dispersion interactions. Solvation free energies were computed by decoupling the interactions between the solute and the solvent molecules. Electrostatic, exchange-repulsion and dispersion interactions were switched off simultaneously using a lambda-dependent scaling (a scaling factor power=2 was used) and a soft-coring algorithm (maximal soft-coring radius=1.5 Å, soft-coring radius scaling factor power=1). 15 lambda points unequally spaced (X=0, 0.05, 0.1, 0.2, 0.3, 0.4, 0.5, 0.6, 0.7, 0.75, 0.8, 0.85, 0.9, 0.95, 1.0) were used to decouple the solute-solvent intermolecular interactions.
In some simulations of the QM-parameterized force field molecular simulation process, energy minimization (10,000 steps) using the steepest descent algorithm was initially performed on all the simulation systems. This was followed by a 50 ps equilibration and 1 ns production runs in the isothermal-isobaric ensemble (NPT). […] Pressure was maintained at 1 atm using a MTTK barostat (relaxation time=5 ps). […]
A short description of data set [8]: Free energy of hydration by COSMO-RS. The method in brief:
as §1

For data set [9] the following is noted: Table 5; free energy of hydration, AMOEBA prediction taken from literature; cited from earlier work.
The conditions of data set [10]: implicit solvent model, values received; cited from earlier work.
For data set [11] the following is noted: implicit solvent model, values received; cited from earlier work. This is another data set of the same source.
Data set [12] is described as follows: CHEX/H2O partition coefficient (log D) predicted with the QM-parameterized force field model (ARROW FF). The method, boiled down:
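Cyclohexane/water partition coefficients were predicted by molecular simulation with a QM-parameterized force field, with bonded force constants and equilibrium values fitted to MP2/aug-cc-pVTZ energies. Solutes carried neutral functional groups, and results from four independent groups were averaged.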

The conditions of data set [13]: experimental; cited from earlier work.
The conditions of data set [14]: Table 3; free energy of solvation in cyclohexane, experimental; cited from earlier work.
The conditions of data set [15]: Table 3; CHEX/H2O partition coefficient, experimental; cited from earlier work.
A short description of data set [16]: Free energy of hydration by Solvation Model Dielectric (SMD) implicit solvent model. Particulars: absolute error vs Exp (hydration). The method, boiled down: as §1
The nature of data set [17]: Free energy of hydration by Polarizable Continuum Model (PCM). The note with it: absolute error vs Exp (hydration). The method in brief: as §1

The text below walks through data of patent publication US20230129485A1, “SYSTEM AND METHOD FOR DETERMINING MATERIAL PROPERTIES OF MOLECULAR SYSTEMS FROM AN AB-INITIO PARAMETERIZED FORCE-FIELD” (InterX, Inc., priority 2021, published 2023).

Each structure is given as a SMILES string. Where only a bound is given, the exact number is not on record here.

For `O` [Water], in [1], the “water Arrow MD Error” value was 0.51 kcal/mol, the “water Arrow PIMD8 Error” value is 0.17 kcal/mol and the “Arrow PIMD8 Error” value is recorded as 0.17 kcal/mol. Moreover, in [1] (Table 5, error of Arrow PIMD8 hydration free energy vs experiment), the Arrow error is 0.17 kcal/mol. Moreover, the “COSMO/Molpro Error” value in data set [2] was determined as 2.29 kcal/mol. For the same molecule, in [3] (free energy of hydration), the “water Exp (hydration)” value is -6.30 kcal/mol. Moreover, the “Exp (hydration)” value in [3] (Table 5, free energy of hydration) was -6.30 kcal/mol. For the same molecule, in data set [3], the Hydration was -6.30 kcal/mol. Further, the GAFF error in [4] is recorded as 0.26 kcal/mol. Moreover, the GAFF in data set [5] was -6.04 kcal/mol. In data set [6], the AMOEBA error is listed as 0.44 kcal/mol. The “agreement of predicted bulk properties with experimental values” in data set [7] (density, heat of vaporization, self-solvation, PIMD8) is given as no more than 3%. For the same molecule, the COSMO-RS error in data set [8] came out at 2.53 kcal/mol. For the same molecule, in [9], the AMOEBA was -5.86 kcal/mol. Also, the “PCM free energy of hydration” value in data set [10] was -4.70 kcal/mol. Also, the “SMD free energy of hydration” value in data set [11] is -8.00 kcal/mol. Besides, in [12], the “log D Arrow MD Error” value is 0.31 and the “log D Arrow PIMD Error” value was 0.17. In [13], the Density was 0.997 g/cc, the Hvap is recorded as 10.51 kcal/mol and the self-solvation is -6.30 kcal/mol. The “CHEX Exp (solvation)” value in [14] was -0.39 kcal/mol. Also, the “Exp (log D)” value in data set [15] was −4.33. Also, in data set [16], the “SMD Error” value came to 1.70 kcal/mol. Moreover, the “PCM Error” value in data set [17] came out at 1.60 kcal/mol.
For the molecule `C1CCCCC1` [Cyclohexane], in data set [1], the “water Arrow MD Error” value is 1.03 kcal/mol, the “water Arrow PIMD8 Error” value is 0.10 kcal/mol and the “Arrow PIMD8 Error” value was 0.10 kcal/mol. In addition, the “COSMO/Molpro Error” value in data set [2] is recorded as 1.71 kcal/mol. Besides, in [3] (free energy of hydration), the “water Exp (hydration)” value is 1.23 kcal/mol. In data set [3], the Hydration is recorded as 1.20 kcal/mol. The “agreement of bulk energetics” value in data set [7] (within chemical accuracy) is reported as no more than 0.5 kcal/mol. Moreover, the COSMO-RS error in data set [8] was determined as 0.10 kcal/mol. The “PCM free energy of hydration” value in [10] was -0.10 kcal/mol. Besides, the “SMD free energy of hydration” value in [11] is on record as 1.40 kcal/mol. In data set [12], the “log D Arrow MD Error” value is listed as 0.89 and the “log D Arrow PIMD Error” value is 0.36. Moreover, in [13], the Density is on record as 0.790 g/cc, the Hvap is 7.91 kcal/mol and the self-solvation was -4.42 kcal/mol. Besides, the “CHEX Exp (solvation)” value in data set [14] is -4.42 kcal/mol. Besides, in [15], the “Exp (log D)” value is recorded as 4.14. In addition, in [16], the “SMD Error” value was 0.17 kcal/mol. For the same molecule, in data set [17], the “PCM Error” value is on record as 1.33 kcal/mol.
